Experimental data: patent US11690860B2, “Treatment of HCV infected patients with cirrhosis” (Atea Pharmaceuticals, Inc., priority 2018, dated 2023)
Entries after “also recorded” stand apart in the source; their conditions may differ. Like-named read-outs stand apart in the source and are kept apart here.

Experiments:
[1] = Plasma pharmacokinetics of Compound 1 and metabolite 1-7 (LC-MS/MS) in Parts C, D and E; assay type: in vivo, human; conditions: for AUC Day 1 (AUCinf for Compound 1) / Cmax / half-life / Tmax / AUC SS (AUCinf for Compound 1): n=6; for Cmax / half-life / Tmax: human, in vivo
Method: Doses were administered as the Compound 2 salt base. The free base Compound 1 equivalent is often given in parenthesis.
Part C was a randomized, double-blind, placebo-controlled MAD study divided into three cohorts. […] The dose escalation only proceeded following satisfactory review of the data.
HCV-infected patients were treatment-naïve with HCV RNA ≥5 log 10 IU/mL. HCV RNA was quantified using COBAS® AmpliPrep TaqMAN® v2.0 with LLQ of 15 IU/mL. Plasma drug levels were measured using LC-MS/MS. […] Cirrhosis was confirmed by prior liver biopsy or Fibroscan >12.5 kPa. […] Mean ages of enrolled subjects were 44, 39, and 56 years in the non-cirrhotic GT1b 600 mg dose cohort, non-cirrhotic GT3 cohort, and the cirrhotic cohort, respectively.
Plasma levels of metabolite 1-7 were measured using LC-MS/MS.

HCV GT2 replicons = experiment: EC95 in replicons containing HCV constructs of clinical isolates, GT2; assay type: cell-based; conditions: HCV GT2, expressed as equivalents of metabolite 1-7
Method: (§1) For rapidly-replicating viruses such as HCV, maintenance of antiviral activity throughout inter-dose time intervals optimizes efficacy by reducing chances for recrudescent viral replication during inter-dose trough periods. […] In those cohorts receiving 600 mg QD, ˜30% of subjects achieved HCV RNA below the lower limit of quantitation with only seven days of therapy.

HCV GT3 replicons = experiment: EC95 in replicons containing HCV constructs of clinical isolates, GT3; assay type: cell-based; conditions: HCV GT3, expressed as equivalents of metabolite 1-7
Method: as §1

[2] = Part C, daily dosing for 7 days

Structure (SMILES): CNc1nc(N)nc2c1ncn2[C@@H]1O[C@H](CO[P@@](=O)(N[C@@H](C)C(=O)OC(C)C)Oc2ccccc2)[C@@H](O)[C@@]1(C)F [Compound 1, isopropyl((S)-(((2R,3R,4R,5R)-5-(2-amino-6-(methylamino)-9H-purin-9-yl)-4-fluoro-3-hydroxy-4-methyltetrahydrofuran-2-yl)methoxy)(phenoxy)phosphoryl)-L-alaninate]
- PK in cirrhotic compared with non-cirrhotic subjects ([1]; 600 mg QD of Compound 2, Parts C/D vs Part E): comparable
- dose proportionality of plasma exposure (peak and total) ([1]; Part C, 150 to 600 mg Compound 2): slightly more than dose proportional from 150 mg to 300 mg and mostly dose proportional thereafter
- AUC Day 1 (AUCinf for Compound 1) ([1]; Part C, NC GT1b, 150 mg/d Compound 2 QD): 492 ± 141 ng/mLxh
- AUC Day 1 (AUCinf for Compound 1) ([1]; Part C, NC GT1b, 300 mg/d Compound 2 QD): 1947 ± 1120 ng/mLxh
- AUC Day 1 (AUCinf for Compound 1) ([1]; Part C, NC GT1b, 600 mg/d Compound 2 QD): 3335 ± 1502 ng/mLxh
- accumulation [1, 2]: did not accumulate over time
- half-life (in words) [1, 2]: short half-life
- AUC Day 1 (AUCinf for Compound 1) ([1]; Part D, NC GT3, 600 mg/d Compound 2 QD): 3333 ± 1241 ng/mLxh
- AUC Day 1 (AUCinf for Compound 1) ([1]; Part E, Child-Pugh A cirrhotic, 600 mg/d Compound 2 QD): 3323 ± 1467 ng/mLxh
- absorption ([1]; after administration of Compound 2, fasted state): rapidly and well-absorbed; also recorded: quickly absorbed
- estimated fraction absorbed ([1]; based on urine recovery): ~50%
- Cmax ([1]; 150 mg/d, Part C, NC GT1b, 150 mg/d Compound 2 QD, read-out: Cmax Day 1): 573 ± 280 ng/mL
- half-life ([1]; 150 mg/d, Part C, NC GT1b, 150 mg/d Compound 2 QD, read-out: T1/2 Day 1 (converted)): 37.2 min
- Tmax ([1]; 150 mg/d, Part C, NC GT1b, 150 mg/d Compound 2 QD, read-out: Tmax Day 1): 30 min
- Cmax ([1]; 150 mg/d, steady state, Part C, NC GT1b, 150 mg/d Compound 2 QD, read-out: Cmax SS): 462 ± 409 ng/mL
- half-life ([1]; 150 mg/d, steady state, Part C, NC GT1b, 150 mg/d Compound 2 QD, read-out: T1/2 SS (converted)): 38.4 min
- Tmax ([1]; 150 mg/d, steady state, Part C, NC GT1b, 150 mg/d Compound 2 QD, read-out: Tmax SS): 60 min
- Cmax ([1]; 300 mg/d, Part C, NC GT1b, 300 mg/d Compound 2 QD, read-out: Cmax Day 1): 2280 ± 893 ng/mL
- half-life ([1]; 300 mg/d, Part C, NC GT1b, 300 mg/d Compound 2 QD, read-out: T1/2 Day 1 (converted)): 48 min
- Tmax ([1]; 300 mg/d, Part C, NC GT1b, 300 mg/d Compound 2 QD, read-out: Tmax Day 1): 30 min
- Cmax ([1]; 300 mg/d, steady state, Part C, NC GT1b, 300 mg/d Compound 2 QD, read-out: Cmax SS): 1830 ± 1310 ng/mL
- half-life ([1]; 300 mg/d, steady state, Part C, NC GT1b, 300 mg/d Compound 2 QD, read-out: T1/2 SS (converted)): 43.8 min
- Tmax ([1]; 300 mg/d, steady state, Part C, NC GT1b, 300 mg/d Compound 2 QD, read-out: Tmax SS): 30 min
- Cmax ([1]; 600 mg/d, Part C, NC GT1b, 600 mg/d Compound 2 QD, read-out: Cmax Day 1): 4210 ± 2300 ng/mL
- half-life ([1]; 600 mg/d, Part C, NC GT1b, 600 mg/d Compound 2 QD, read-out: T1/2 Day 1 (converted)): 51.6 min
- Tmax ([1]; 600 mg/d, Part C, NC GT1b, 600 mg/d Compound 2 QD, read-out: Tmax Day 1): 30 min
- Cmax ([1]; 600 mg/d, Part D, NC GT3, 600 mg/d Compound 2 QD, read-out: Cmax Day 1): 3970 ± 1940 ng/mL
- half-life ([1]; 600 mg/d, Part D, NC GT3, 600 mg/d Compound 2 QD, read-out: T1/2 Day 1 (converted)): 43.8 min
- Tmax ([1]; 600 mg/d, Part D, NC GT3, 600 mg/d Compound 2 QD, read-out: Tmax Day 1): 30 min
- Cmax ([1]; 600 mg/d, Part E, Child-Pugh A cirrhotic, 600 mg/d Compound 2 QD, read-out: Cmax Day 1): 3410 ± 2180 ng/mL
- half-life ([1]; 600 mg/d, Part E, Child-Pugh A cirrhotic, 600 mg/d Compound 2 QD, read-out: T1/2 Day 1 (converted)): 51.6 min
- Tmax ([1]; 600 mg/d, Part E, Child-Pugh A cirrhotic, 600 mg/d Compound 2 QD, read-out: Tmax Day 1): 30 min
- Cmax ([1]; 600 mg/d, steady state, Part C, NC GT1b, 600 mg/d Compound 2 QD, read-out: Cmax SS): 3600 ± 1740 ng/mL
- half-life ([1]; 600 mg/d, steady state, Part C, NC GT1b, 600 mg/d Compound 2 QD, read-out: T1/2 SS (converted)): 51 min
- Tmax ([1]; 600 mg/d, steady state, Part C, NC GT1b, 600 mg/d Compound 2 QD, read-out: Tmax SS): 30 min
- Cmax ([1]; 600 mg/d, steady state, Part D, NC GT3, 600 mg/d Compound 2 QD, read-out: Cmax SS): 4140 ± 2280 ng/mL
- half-life ([1]; 600 mg/d, steady state, Part D, NC GT3, 600 mg/d Compound 2 QD, read-out: T1/2 SS (converted)): 49.8 min
- Tmax ([1]; 600 mg/d, steady state, Part D, NC GT3, 600 mg/d Compound 2 QD, read-out: Tmax SS): 30 min
- Cmax ([1]; 600 mg/d, steady state, Part E, Child-Pugh A cirrhotic, 600 mg/d Compound 2 QD, read-out: Cmax SS): 3190 ± 2080 ng/mL
- half-life ([1]; 600 mg/d, steady state, Part E, Child-Pugh A cirrhotic, 600 mg/d Compound 2 QD, read-out: T1/2 SS (converted)): 48.6 min
- Tmax ([1]; 600 mg/d, steady state, Part E, Child-Pugh A cirrhotic, 600 mg/d Compound 2 QD, read-out: Tmax SS): 30 min
- AUC SS (AUCinf for Compound 1) ([1]; steady state, Part C, NC GT1b, 150 mg/d Compound 2 QD): 475 ± 301 ng/mLxh
- AUC SS (AUCinf for Compound 1) ([1]; steady state, Part C, NC GT1b, 300 mg/d Compound 2 QD): 1510 ± 976 ng/mLxh
- AUC SS (AUCinf for Compound 1) ([1]; steady state, Part C, NC GT1b, 600 mg/d Compound 2 QD): 4036 ± 2093 ng/mLxh
- AUC SS (AUCinf for Compound 1) ([1]; steady state, Part D, NC GT3, 600 mg/d Compound 2 QD): 3754 ± 2275 ng/mLxh
- AUC SS (AUCinf for Compound 1) ([1]; steady state, Part E, Child-Pugh A cirrhotic, 600 mg/d Compound 2 QD): 3527 ± 1605 ng/mLxh
- EC95 (HCV GT2 replicons): ~0.012 µg/mL
- EC95 (HCV GT3 replicons): ~0.018 µg/mL
